Measurements from article PMC8482815, “Targeting Host Glycolysis as a Strategy for Antimalarial Development” (Frontiers in Cellular and Infection Microbiology, 2021).
Where “and” joins values, the source holds several entries; their conditions need not be identical. Identical values can stand only once.

Tested on: human erythrocytes
Test: Untargeted metabolomics and 13C-glucose tracing of enolase inhibitor treated erythrocytes
Type: cell-based
Settings: 1h
Description: Freshly collected erythrocytes were washed, resuspended to 10% hematocrit in buffer [25mM HEPES (pH 7.4), 120mM NaCl, 5.4mM KCl, 1.8mM CaCl2, and 1mM NaH2PO4], incubated for 1 hour at 37°C, then centrifuged at 2000xg for 5 minutes at 4°C, resuspended in fresh wash buffer to 30-40% hematocrit, and split into 210µL aliquots of packed erythrocytes. […] All samples were incubated at 37°C shaking at 500 RPM. Triplicate samples of supernatants and packed erythrocytes were collected at 0, 0.5, 1, and 6-hour intervals and snap-frozen in liquid N2.
RBC and media samples were extracted at 1:10 and 1:20 dilutions, respectively, in 5:3:2 MeOH : MeCN:H2O v/v/v, and supernatants analyzed on a Thermo Vanquish UHPLC coupled to a Thermo Q Exactive mass spectrometer, as extensively described ([Nemkov et al., 2015]; [Nemkov et al., 2017]). The extraction buffer was supplemented with 40uM 3-^13C lactate to allow absolute quantification of lactate isotopologues, including lactate generated via glycolysis ([1,2,3-^13C3] enriched) vs. the pentose phosphate pathway ([2,3-^13C2] enriched), as described ([Reisz et al., 2016]). Metabolite assignments, peak area integration and isotopologues distributions were determined using Maven (Princeton University) ([Nemkov et al., 2015]; [Nemkov et al., 2017]).
Data were auto-scaled and normalized to zero-hour time points. Metabolites were removed from the dataset if greater than 50% of the samples contained missing values or the relative standard deviation among replicates exceeded 25%. Additionally, data was filtered using the interquartile range to reduce near-constant values from the experiment by 5%.
A principal component analysis of preprocessed data was plotted with the 95% confidence interval minimum volume enclosing ellipsoid for each respective group (MetaboAnalyst, cluster, plotly). A two-way repeated measures analysis of variance (ANOVA) was performed with multiple comparisons corrected for using a false discovery rate p-value cutoff of 0.05. Metabolite-Pathway analysis was performed using the R package of MetaboAnalyst, as previously described ([Xia and Wishart, 2010]). Metabolite-Protein nodal analysis was performed using omicsnet.ca and as previously described ([Zhou and Xia, 2018]).

[1] = treated erythrocytes, one value per replicate sample, polarity +
[2] = treated erythrocytes, one value per replicate sample, polarity -
[3] = treated erythrocytes, replicate samples

## CC(C)(C)C(=O)OCOP(=O)(OCOC(=O)C(C)(C)C)C1CC(O)N(O)C1=O (stereo not shown) [POMSF]
Replicate samples
  AMP level (metabolomics signal): 2.14E+06 and 1.66E+06 and 1.77E+06
  ATP level (metabolomics signal): 1.57E+04 and 2.82E+04 and 2.26E+04
  Adenine level (metabolomics signal): 1.34E+05 and 1.22E+05 and 1.52E+05
  Cytosine level (metabolomics signal): 3.68E+05 and 3.33E+05 and 3.22E+05
  L-alanine level (metabolomics signal): 8.35E+06 and 9.14E+06 and 1.12E+07
  L-arginine level (metabolomics signal): 1.02E+07 and 1.01E+07 and 0.00E+00
  L-asparagine level (metabolomics signal): 7.51E+06 and 6.72E+06 and 7.84E+06
  L-aspartate level (metabolomics signal): 3.12E+07 and 3.26E+07 and 2.90E+07
  L-cysteine level (metabolomics signal): 1.80E+06 and 1.83E+06 and 5.70E+05
  L-glutamate level (metabolomics signal): 3.18E+07 and 2.68E+07 and 2.49E+07
  L-glutamine level (metabolomics signal): 8.50E+07 and 9.01E+07 and 8.26E+07
  L-histidine level (metabolomics signal): 1.59E+06 and 1.54E+06 and 1.57E+06
  L-isoleucine level (metabolomics signal): 1.27E+07 and 1.24E+07 and 1.09E+07
  L-leucine level (metabolomics signal): 2.27E+08 and 2.54E+08 and 2.31E+08
  L-lysine level (metabolomics signal): 2.40E+06 and 2.03E+06 and 1.89E+06
  L-methionine level (metabolomics signal): 2.24E+07 and 2.35E+07 and 2.22E+07
  L-phenylalanine level (metabolomics signal): 1.58E+07 and 1.49E+07 and 1.43E+07
  L-proline level (metabolomics signal): 6.58E+07 and 5.90E+07 and 5.39E+07
  L-serine level (metabolomics signal): 4.64E+06 and 5.26E+06 and 6.00E+06
  L-threonine level (metabolomics signal): 8.46E+06 and 8.55E+06 and 8.85E+06
  L-tryptophan level (metabolomics signal): 5.00E+06 and 4.41E+06 and 4.35E+06
  L-tyrosine level (metabolomics signal): 2.58E+07 and 2.87E+07 and 2.75E+07
  L-valine level (metabolomics signal): 1.53E+08 and 1.47E+08 and 1.51E+08
  dCMP level (metabolomics signal): 1.51E+04 and 1.42E+04 and 1.15E+04
  dTMP level (metabolomics signal): 1.28E+06 and 1.27E+06 and 1.22E+06
  glycine level (metabolomics signal): 1.77E+06 and 2.28E+06 and 2.53E+06
[1]
  N-Acyl-D-aspartate (C06380) metabolite signal: 1.57E+05 and 1.16E+05 and 1.31E+05
  Poly-gamma-D-glutamate (C05723) metabolite signal: 5.78E+07 and 6.19E+07 and 5.54E+07
[2]
  D-Ribitol 5-phosphate (C01068) metabolite signal: 2.08E+04 and 2.67E+04 and 2.32E+04
  D-glucono-1,5-lactone (C00198) metabolite signal: 3.06E+05 and 3.20E+05 and 3.38E+05
  L-Noradrenaline (C00547) metabolite signal: 3.16E+04 and 3.80E+04 and 3.20E+04
  Oxalosuccinate (C05379) metabolite signal: 9.37E+04 and 1.04E+05 and 9.63E+04
  Pyridoxamine (C00534) metabolite signal: 1.68E+04 and 1.54E+04 and 2.58E+04
  Thioredoxin disulfide (C00343) metabolite signal: 5.72E+04 and 1.02E+05 and 5.14E+04
[3]
  1-4-beta-D-Xylan (metabolite signal): 1.97E+05 and 1.92E+05 and 2.09E+05
  2-Hydroxyglutarate/Citramalate (C02630) metabolite signal: 7.86E+04 and 5.69E+04 and 5.61E+04
  5-6-Dihydrothymine (C00906) metabolite signal: 2.50E+05 and 2.77E+05 and 2.96E+05
  5-10-Methenyltetrahydrofolate (metabolite signal): 1.06E+05 (2×) and 7.96E+04
  5-Hydroxyisourate (C11821) metabolite signal: 1.50E+06 and 2.10E+06 and 4.21E+06
  5-L-Glutamyl-taurine (metabolite signal): 1.11E+05 and 1.18E+05 and 1.16E+05
  5-Oxoproline (metabolite signal): 8.27E+05 and 7.57E+05 and 7.14E+05
  (S)(+)-Allantoin (C02350) metabolite signal: 1.72E+04 and 1.57E+04 and 2.62E+04
  Allantoate (C00499) metabolite signal: 6.65E+05 and 5.04E+05 and 3.15E+05
  Ascorbate (metabolite signal): 1.17E+05 and 8.53E+04 and 8.00E+04
  CMP-N-acetylneuraminate (metabolite signal): 1.67E+04 and 8.29E+03 and 7.76E+03
  Carnosine (metabolite signal): 1.06E+05 and 9.45E+04 and 2.03E+05
  Citrate (C00158) metabolite signal: 4.35E+04 and 3.82E+04 and 3.29E+04
  Creatine (metabolite signal): 2.46E+08 and 2.26E+08 and 2.23E+08
  Creatinine (metabolite signal): 2.77E+06 and 2.62E+06 and 2.87E+06
  Cys-Gly (metabolite signal): 2.32E+06 and 2.14E+06 and 1.32E+06
  D-Glucosamine (metabolite signal): 2.29E+05 and 1.27E+05 and 2.04E+05
  D-Glucose (C00031) metabolite signal: 5.29E+06 and 5.04E+06 and 5.14E+06
  D-Ribose (C00121) metabolite signal: 1.64E+05 and 1.19E+05 and 1.18E+05
  Dehydroascorbate (metabolite signal): 6.32E+04 and 5.87E+04 and 4.12E+04
  Dihydrofolate (metabolite signal): 3.00E+06 and 2.07E+06 and 9.85E+05
  Dimethylglycine (metabolite signal): 8.86E+05 and 1.02E+06 and 8.96E+05
  Diphosphate (C00013) metabolite signal: 2.94E+04 and 3.31E+04 and 1.77E+04
  Fumarate (C00122) metabolite signal: 1.04E+05 and 8.86E+04 and 8.87E+04
  Glutathione (C00051) metabolite signal: 1.54E+08 and 1.50E+08 and 9.17E+07
  Glutathione disulfide (metabolite signal): 1.48E+05 and 9.64E+04 and 9.50E+04
  Hypoxanthine (C00262) metabolite signal: 3.21E+04 and 1.66E+04 and 8.15E+03
  IMP (C00130) metabolite signal: 1.58E+05 and 9.80E+04 and 1.96E+05
  Inosine (C00294) metabolite signal: 6.71E+04 and 6.29E+04 and 6.63E+04
  L-Citrulline (metabolite signal): 2.74E+06 and 3.23E+06 and 3.99E+06
  L-Homoserine (metabolite signal): 2.34E+05 and 2.10E+05 and 2.35E+05
  Lactate (C01432) metabolite signal: 9.22E+06 and 8.76E+06 and 8.98E+06
  Malate (C00149) metabolite signal: 1.55E+05 and 1.07E+05 and 9.91E+04
  Mannitol (C00392) metabolite signal: 1.01E+05 and 9.53E+04 and 1.38E+05
  N-Acetylneuraminate (metabolite signal): 2.25E+04 and 1.68E+04 and 2.38E+04
  N-Glycoloyl-neuraminate (metabolite signal): 1.23E+05 and 1.51E+05 and 1.32E+05
  NAD+ (C00003) metabolite signal: 8.73E+04 and 4.11E+04 and 4.40E+04
  Nicotinamide (C00153) metabolite signal: 3.46E+07 and 3.78E+07 and 4.86E+07
  Ornithine (metabolite signal): 1.57E+06 (2×) and 1.55E+06
  Oxaloacetate (C00036) metabolite signal: 5.69E+04 and 5.42E+04 and 4.38E+04
  Phosphoserine (metabolite signal): 0.00E+00 (2×) and 3.46E+04
  Putrescine (metabolite signal): 4.96E+04 and 2.87E+04 and 4.23E+04
  Pyridoxal (C00250) metabolite signal: 5.84E+04 and 5.75E+04 and 6.92E+04
  Pyruvate (C00022) metabolite signal: 9.01E+05 and 7.95E+05 and 8.15E+05
  S-Glutathionyl-L-cysteine (metabolite signal): 1.18E+05 and 8.54E+04 and 7.69E+04
  Sedoheptulose 1-phosphate (C06222) metabolite signal: 1.59E+04 and 1.93E+04 and 8.80E+03
  Spermidine (metabolite signal): 8.37E+06 and 7.92E+06 and 6.82E+06
  Spermine (metabolite signal): 1.09E+07 and 1.10E+07 and 8.00E+06
  Succinate (C00042) metabolite signal: 7.45E+04 and 8.48E+04 and 5.74E+04
  Thymidine (C00214) metabolite signal: 1.11E+04 and 1.24E+04 and 8.29E+03
  UDP (C00015) metabolite signal: 2.25E+05 and 1.89E+05 and 1.40E+05
  UDP-N-acetyl-D-glucosamine (metabolite signal): 1.24E+04 and 7.59E+03 and 4.65E+03
  UDP-glucose (C00029) metabolite signal: 2.38E+04 and 1.72E+04 and 9.18E+03
  Urate (C00366) metabolite signal: 3.27E+04 and 2.94E+04 and 2.46E+04
  Xanthine (C00385) metabolite signal: 2.31E+05 and 1.91E+05 and 1.90E+05
  alpha-D-Glucosamine 1-phosphate (metabolite signal): 4.45E+05 and 6.15E+05 and 8.58E+05
  alpha-D-Ribose 1-phosphate (C00620) metabolite signal: 6.39E+04 and 6.67E+04 and 4.32E+04
  gamma-Glutamyl-gamma-aminobutyrate (metabolite signal): 7.63E+04 and 8.93E+04 and 1.06E+05
  gamma-L-Glutamyl-D-alanine (metabolite signal): 4.26E+04 and 3.07E+04 and 3.12E+04
  gamma-L-Glutamyl-L-cysteine (metabolite signal): 3.96E+04 and 5.76E+04 and 1.90E+04
